Results on 88 compounds are retold here after a melting point compilation (Tetko et al.; mined from patent text by program, amines drawn as free bases though some values may be those of a salt).

`O=C(O)CCCC(=O)Nc1cccc(-c2ccnc3c(C(=O)c4cccs4)cnn23)c1` returned a melting point of 189 to 190 °C.
As for `CN[C@@H]1CN(c2c(F)cc3c(=O)c(C(=O)O)cn([C@@H]4C[C@@H]4F)c3c2C)C[C@@H]1C(C)C`, the figure is 168 to 171 °C; as for `CCC(CC)c1ccc(C(=O)OC)c2nc(Oc3c(C)cc(Cl)cc3Cl)n(C)c12`, 177 to 178 °C.
The same measure for `Cc1cc(-n2ccnc2)c2cccc(OCc3c(Cl)ccc(S(=O)(=O)N4CCC[C@H]4C(=O)NCCCN4CCOCC4)c3Cl)c2n1`: 96 °C; for `N#Cc1ccc2c(c1)NCc1ccccc1O2`: 104 to 105 °C.
The same measure for `Cc1ccc(C(=O)Nc2c[nH]nc2C(=O)NCCC#N)o1`: 135 to 137 °C.
`COC(=O)C1=C(C)NC(C)=C(C(C)=O)C1c1ccccc1Cl` (stereo not drawn) registered a melting point of 183 to 184 °C.
As for `c1ccc(Cc2ncc(-c3ccc4cc(OCc5nnn[nH]5)ccc4c3)o2)cc1`, the figure is 227 to 228 °C; as for `CCOC(=O)c1c(O)nc(SCC)n1C(C)C`, 82 to 84 °C; as for `O=C(O)C1CCc2c(c3cccc(Br)c3n2C(=O)c2ccccc2)C1` (stereo not drawn), 196 to 198 °C.
For the compound `N#Cc1ccc(/C=C/C=C/C=O)c(F)c1`, the melting point lay in the range of 174 to 177 °C.
The same measure for `CCOC(=O)c1cc(C(=O)C(C)C)c(=O)[nH]c1C(=O)OCC`: 116 to 118 °C; for `Cc1nc(N2CCN(Cc3ccc4nsnc4c3)C2=O)sc1C(=O)NCc1cccnc1`: 105 to 107 °C; for `CC(C)C(NC(=O)N(C)Cc1ccccn1)C(=O)N(C(=O)C(NC(=O)N(C)Cc1nccs1)C(C)C)C(Cc1ccccc1)CC(O)CCc1ccccc1` (stereo not drawn): 156 to 158 °C.
As for `COc1ccc2c(c1)c(Cc1cc(=O)n(-c3ccc(C)cc3)[nH]1)c(C)n2C(=O)c1ccc(Cl)cc1`, the melting point was in the range of 131 to 133 °C.
With `COc1ccccc1SC(CC(C)C)c1c(O)cc(-c2ccccc2)oc1=O` (stereo not drawn), the melting point lay in the range of 75 to 78 °C.
As for `c1ccc(N(c2ccccc2)c2ccc(-c3ccc(-c4ccnc(C5Cc6ccccc6N5)n4)cc3)cc2)cc1` (stereo not drawn), the figure is 247 to 248 °C; as for `CCOC(=O)CN(CP(=O)(ONNc1ccccc1)ONNc1ccccc1)C(=O)C(F)(F)F`, 113 to 116 °C.
As for `O=C(O)[C@H](Cc1cccc(C(F)(F)F)c1)[C@@H](O)c1ccc(F)cc1` (racemic), the figure is 116 to 118 °C; as for `CCOC(=O)c1ccc(NC(=O)c2ccc3c(c2)CCC(C)(C)C(=O)N3C)cc1`, 169 to 170 °C; as for `Cc1ccc(-c2ccc3c(c2)OCO3)cc1`, 57 to 60 °C.
Consider `COC(=O)c1sc2c(c1N)-c1ccccc1CN2c1ccccc1`, for which the melting point was in the range of 136 to 142 °C.
As for `O=c1[nH]c2cccnc2o1`, the figure is 252 °C.
As for `COC(=O)C(=C1SC=CS1)S(=O)(=O)C(C)C`, the figure is 141 to 142 °C.
With `COC(=O)[C@H](Cc1ccc(NC(=O)c2c(Cl)cccc2Cl)cc1)NC(=S)C1(CCCSC)CCC1`, the melting point was 184 to 186 °C.
As for `Cc1c(CN(C)CCc2ccc(NS(C)(=O)=O)cc2)oc2ccc([N+](=O)[O-])cc12`, the figure is 124 °C.
The same measure for `Cc1cnc(C(=O)NCCc2ccc(S(N)(=O)=O)cc2)cn1`: 190 to 200 °C; for `COc1c(CC#N)cccc1CC#N`: 58 to 59.5 °C; for `CCCCCCCCCCCCCCOc1cccc(C(=O)N(Cc2ccccn2)C(C)=O)c1`: 66 to 67 °C.
Turning to `CC12CCC3c4ccc(OC(=O)c5ccccc5)cc4CCC3C1CCC2OC(=O)c1cccnc1` (stereo not drawn), the melting point fell in the range of 151 to 154 °C.
The compound `COc1ccc(-n2cnc3ccc(-c4nnc(SCc5ccc(OC)c(C(F)(F)F)c5)o4)cc32)cc1` showed a melting point of 163 to 164 °C.
As for `CC(C)(C)c1cc(C(N)=O)cc(C(C)(C)C)c1O`, the figure is 263 to 265 °C.
The same measure for `COc1ccc([C@@H]2Sc3ccccc3N(CCN(C)C)C(=O)[C@@H]2O)cc1` (relative stereo): 88 to 90 °C; for `c1csc(-c2cc(-c3cccs3)ncn2)c1`: 146 °C; for `CNc1cc(-c2c(-c3ccc(F)cc3)ccn2C2CCNCC2)ccn1`: 165 to 167 °C.
As for `CN1Cc2c(C(N)=O)ncn2-c2ccccc2C1=O`, the figure is 274 to 275 °C; as for `COc1cc(Br)c(C=O)cc1OCc1ccccc1`, 140 to 141 °C.
The compound `CSc1nc(C)ccc1NC(=O)CCCCCCCCSc1nc2ccccc2[nH]1` had a melting point of 73 to 75 °C.
As for `O=C(c1ccc(Br)cc1Cl)c1cccc2c1Nc1ncccc1CN2`, the figure is 165 to 168 °C; as for `CCOC(=O)c1cc(=O)c(O)c(-c2ccccc2)o1`, 155 to 157 °C.
The same measure for `CCOC(=O)C(NC(=O)c1cnc2cccc(C)n2c1=O)C(C)C` (stereo not drawn): 136 °C; for `NC(=O)c1cccc(NS(=O)(=O)c2cc(S(=O)(=O)Nc3cccc(C(N)=O)c3)c3cc(O)ccc3c2)c1`: 169 to 171 °C; for `Cc1oc(-c2ccco2)nc1COc1ccc(C=O)cn1`: 139 to 140 °C.
`O=S(=O)(Cl)c1c(Cl)cc(F)cc1Cl` registered a melting point of 57 °C.
As for `COC(=O)NC1(c2ccccc2)CCN(Cc2ccccc2)CC1`, the figure is 121 to 122 °C; as for `CCCCN1CN(C2CC(OC(=O)c3ccccc3C)C(COC(=O)c3ccccc3C)O2)C(=O)NC1=O` (stereo not drawn), 170 to 172 °C; as for `COC(=O)CC(=O)c1ccccc1OCc1ccccc1C`, 38 to 42 °C.
Compound `OCCC1c2ccccc2-c2ccccc21` displayed a melting point of 97 °C.
The same measure for `COC(=O)c1cc(OC)c(-n2cccc2)c(OC)c1`: 145 to 146 °C; for `CC(=O)N(C)C(CCl)C(=O)O` (stereo not drawn): 104 °C; for `CCCNC(=O)N1CCc2cc(S(=O)(=O)N3CC(c4ccccc4)NC3=O)ccc21` (stereo not drawn): 197 to 199 °C.
For the compound `CC(C)(C)c1cc(C(C)(C)c2cc(C(C)(C)C)c(O)c(C(C)(C)C)c2)cc(C(C)(C)C)c1O`, the melting point lay in the range of 148 to 154 °C.
As for `Nc1nc2cc(-c3ccccc3)ccc2c2c1ncn2CCCN1CCCC1=O`, the figure is 201 to 204 °C.
The compound `Cc1cc(Oc2ccc3nc(COc4ccc(CC5SC(=O)NC5=O)cc4)n(C)c3c2)cc(C)c1NC(=O)Nc1ccc(C(F)(F)F)cc1` (stereo not drawn) registered a melting point of 206 to 208 °C.
In turn, `CCN(Cc1cc(Cl)ccc1OCC1CC1)c1ccc(C(=O)NS(=O)(=O)C(F)(F)F)nn1` came in with a melting point of 150 °C.
The same measure for `CCOc1cc(Cc2cnc(N)nc2N)cc2c1OC(C)(C)C=C2CC(C)C`: 188 °C; for `CCc1nnc(Cc2c(Cl)cncc2Cl)c2ccc(OC)cc12`: 136 to 138 °C; for `COc1cccc(C(O)(CC2CCNCC2)c2cccc(OC)c2)c1`: 111 to 113 °C.
As for `CC(O)c1ccc(Oc2ccc(NC(=O)Nc3cc(C(C)(C)C)on3)cc2)cc1` (stereo not drawn), the figure is 80 to 85 °C; as for `O=C(c1ccccc1)N1CC(=O)N2CCc3ccccc3C2C1` (stereo not drawn), 162 to 163 °C; as for `COC(=O)c1ccc2c(c1)OC(C)(C)C(=O)N2C(C)C`, 62 to 63 °C.
Compound `O=C(COc1ccc(Cl)cc1Cl)OCNC(=O)Oc1cccc(Cl)c1` showed a melting point of 110 °C.
The same measure for `CCC12CCC3C4CCCC=C4CCC3C1C=CC2=O` (stereo not drawn): 125 °C; for `O=c1c2c(Cc3ccc([N+](=O)[O-])cc3)n[nH]c2c2cccnc2n1-c1ccccc1`: 254 to 255 °C; for `CC(C)Oc1cc(/C=C/C(=O)O)n(Cc2ncc(C(F)(F)F)cc2Cl)n1`: 130 to 132 °C.
The same measure for `COc1ccc2[nH]c(CCN(C)C)c(CSc3ccccc3)c2c1`: 85 to 88 °C.
The same measure for `COc1ccc(S(=O)(=O)C(Nc2c(Br)cc(C)cc2C(=O)O)c2cccnc2)cc1` (stereo not drawn): 198 °C; for `Cn1nc(-c2ccncc2)nc1-c1ccccn1`: 145 to 146 °C.
The compound `Cc1ccccc1-c1ccc2ccccc2c1C(=O)N(C)C` gave a melting point of 108 to 109 °C.
As for `CCNS(=O)(=O)c1ccc(N)c(C(=O)N2CCN(C)CC2)c1`, the figure is 175 to 177 °C; as for `CCOC(=O)C[C@H](O)COC(c1ccccc1)(c1ccccc1)c1ccccc1`, 98.8 to 101 °C; as for `CCCCCCCCCCCCCCOc1ccc(CNC(=O)NCc2ccccn2)cc1`, 108 to 109 °C.
As for `COc1nc(C(=O)N(C)Cc2cc(C(F)(F)F)cc(C(F)(F)F)c2)c(-c2ccccc2)c2ccccc12`, the figure is 129 to 130 °C; as for `COc1ccc(C(CCCCl)=NNC(N)=S)cc1`, 137 to 140 °C.
In the case of `Cc1nc(-c2ccccc2)nc(NCC(=O)N(C)c2ccccc2)c1Br`, the melting point lay in the range of 160 to 162 °C.
As for `CC1CCN(CC#CCN2C(=O)c3cccc4c3N(CC4)c3ccccc32)CC1`, the figure is 157 to 158 °C.
As for `CCc1cc(C)c2c(n1)-c1ccccc1C2=O`, the figure is 68 to 70 °C.
The compound `Cc1[nH]c(=O)[nH]c1C(=O)Cc1ccccc1` showed a melting point of 239 to 240 °C.
`COc1cc2c(cc1Nc1ncc(Cl)c(Nc3ccccc3S(=O)(=O)N3CCC(O)C3)n1)CCN(CC(=O)N(C)C)CC2` (stereo not drawn) came in with a melting point of 70 to 84 °C.
In the case of `NC(=O)c1cc(F)c(F)c(Cl)c1Cl`, the melting point was in the range of 153 to 155 °C.
Compound `O=C(O)C=Cc1cccc2cc[nH]c12` registered a melting point of 179 to 181 °C.
The compound `C#Cc1cccc(Nc2ncnc3c2ccn3CCOC)c1` yielded a melting point of 240 to 241 °C.
The same measure for `COC=C(C(=O)OC)c1ccccc1C#CC1=CCN(c2ccc(Cl)cc2)O1`: 107 to 110 °C; for `COc1cccc2c1C(=O)C(=O)N2`: 198 to 200 °C.
The same measure for `COc1cccc2c(NCc3ccccc3C)nc(Cl)nc12`: 279 to 281 °C; for `CCOC(=O)c1cc(-c2ocnc2C)[nH]n1`: 131 to 133 °C.
The same measure for `CCCCNc1cc2c(cc1[N+](=O)[O-])OCO2`: 137 °C; for `O=C(O)CCc1cc(-c2ccc(Cl)cc2)n(-c2nc3c(Cl)cccc3s2)n1`: 232 to 234 °C.

The melting point is the temperature, or range, at which the solid turns liquid.
